# Results: ChEMBL document CHEMBL3885861, “Open TG-GATES”
# Species: Rattus norvegicus
# Assay: Open TG-GATES - Regimen: Daily Repeat
# Type: toxicity, organism-based, Sprague-Dawley
# Set-up: regimen Daily Repeat, gender Male, age 6 weeks
# Conditions: in vivo, po, 15 mg/kg, route gavage, dose level Low; for APTT / Bas / Eos / Fbg / Hb / Ht / Lym / MCH / MCHC / MCV / Mono / Neu / PT / Plat / RBC / Ret / WBC: tissue Blood; for KIDNEY_L / KIDNEY_R / KIDNEY_TOTAL: tissue Kidney; for LIVER: tissue Liver; for A/G / ALP / ALT / AST / BUN / CRE / Ca / Cl / DBIL / GLC / IP / K / LDH / Na / PL / RALB / TBIL / TC / TG / TP / gamma-GTP: tissue Plasma
compound,measurement,setting,value
CC(C)C(=O)Nc1ccc([N+](=O)[O-])c(C(F)(F)F)c1 [FLUTAMIDE],TERMINAL_BW,"72 h, time 3 day",223.1 g
same,APTT,"72 h, time 3 day",18.7 s
same,Bas,"72 h, time 3 day",0%
same,Eos,"72 h, time 3 day",1%
same,Fbg,"72 h, time 3 day",224.2 mg/dL
same,Hb,"72 h, time 3 day",14 g/dL
same,Ht,"72 h, time 3 day",41.8%
same,Lym,"72 h, time 3 day",75.2%
same,MCH,"72 h, time 3 day",21.6 pg
same,MCHC,"72 h, time 3 day",33.6%
same,MCV,"72 h, time 3 day",64.4 fL
same,Mono,"72 h, time 3 day",3.2%
same,Neu,"72 h, time 3 day",19.4%
same,PT,"72 h, time 3 day",12.3 s
same,Plat,"72 h, time 3 day",119.4 x10_4/uL
same,RBC,"72 h, time 3 day",649.4 x10_4/ul
same,Ret,"72 h, time 3 day",5.7%
same,WBC,"72 h, time 3 day",84.8 x10_2/uL
same,KIDNEY_L,"72 h, time 3 day",1 g
same,KIDNEY_R,"72 h, time 3 day",1 g
same,KIDNEY_TOTAL,"72 h, time 3 day",1.9 g
same,LIVER,"72 h, time 3 day",11.2 g
same,A/G,"72 h, time 3 day",1.8
same,ALP,"72 h, time 3 day",847 IU/L
same,ALT,"72 h, time 3 day",40 IU/L
same,AST,"72 h, time 3 day",66.8 IU/L
same,BUN,"72 h, time 3 day",14.4 mg/dL
same,CRE,"72 h, time 3 day",0.4 mg/dL
same,Ca,"72 h, time 3 day",10.9 mg/dL
same,Cl,"72 h, time 3 day",104.2 meq/L
same,DBIL,"72 h, time 3 day",0.1 mg/dL
same,GLC,"72 h, time 3 day",216.8 mg/dL
same,IP,"72 h, time 3 day",7.1 mg/dL
same,K,"72 h, time 3 day",3.9 meq/L
same,LDH,"72 h, time 3 day",177.6 IU/L
same,Na,"72 h, time 3 day",140.8 meq/L
same,PL,"72 h, time 3 day",157.4 mg/dL
same,RALB,"72 h, time 3 day",3.6 g/dL
same,TBIL,"72 h, time 3 day",0.2 mg/dL
same,TC,"72 h, time 3 day",86.6 mg/dL
same,TG,"72 h, time 3 day",86.2 mg/dL
same,TP,"72 h, time 3 day",5.6 g/dL
same,gamma-GTP,"72 h, time 3 day",1.2 IU/L
same,TERMINAL_BW,"[…], time 7 day",248.2 g
same,TERMINAL_BW,"[…], time 14 day",294.4 g
same,TERMINAL_BW,"[…], time 28 day",340.6 g
same,APTT,"[…], time 7 day",19.1 s
same,Bas,"[…], time 7 day",0%
same,Eos,"[…], time 7 day",1%
same,Fbg,"[…], time 7 day",217.8 mg/dL
same,Hb,"[…], time 7 day",13.6 g/dL
same,Ht,"[…], time 7 day",40.3%
same,Lym,"[…], time 7 day",84.6%
same,MCH,"[…], time 7 day",20.8 pg
same,MCHC,"[…], time 7 day",33.7%
same,MCV,"[…], time 7 day",61.6 fL
same,Mono,"[…], time 7 day",2%
same,Neu,"[…], time 7 day",12.2%
same,PT,"[…], time 7 day",12.3 s
same,Plat,"[…], time 7 day",124.4 x10_4/uL
same,RBC,"[…], time 7 day",654.8 x10_4/ul
same,Ret,"[…], time 7 day",4.6%
same,WBC,"[…], time 7 day",149.8 x10_2/uL
same,APTT,"[…], time 14 day",20.6 s
same,Bas,"[…], time 14 day",0%
same,Eos,"[…], time 14 day",0.6%
same,Fbg,"[…], time 14 day",228.4 mg/dL
same,Hb,"[…], time 14 day",14.3 g/dL
same,Ht,"[…], time 14 day",41.8%
same,Lym,"[…], time 14 day",82.4%
same,MCH,"[…], time 14 day",20.9 pg
same,MCHC,"[…], time 14 day",34.2%
same,MCV,"[…], time 14 day",61.1 fL
same,Mono,"[…], time 14 day",2.4%
same,Neu,"[…], time 14 day",13.4%
same,PT,"[…], time 14 day",12.3 s
same,Plat,"[…], time 14 day",104.8 x10_4/uL
same,RBC,"[…], time 14 day",684.6 x10_4/ul
same,Ret,"[…], time 14 day",3.8%
same,WBC,"[…], time 14 day",112.5 x10_2/uL
same,APTT,"[…], time 28 day",19.6 s
same,Bas,"[…], time 28 day",0%
same,Eos,"[…], time 28 day",1.2%
same,Fbg,"[…], time 28 day",229.2 mg/dL
same,Hb,"[…], time 28 day",15.1 g/dL
same,Ht,"[…], time 28 day",42.7%
same,Lym,"[…], time 28 day",82%
same,MCH,"[…], time 28 day",20 pg
same,MCHC,"[…], time 28 day",35.4%
same,MCV,"[…], time 28 day",56.4 fL
same,Mono,"[…], time 28 day",2.2%
same,Neu,"[…], time 28 day",13.6%
same,PT,"[…], time 28 day",12.4 s
same,Plat,"[…], time 28 day",106.7 x10_4/uL
same,RBC,"[…], time 28 day",758.8 x10_4/ul
same,Ret,"[…], time 28 day",2.1%
same,WBC,"[…], time 28 day",99.2 x10_2/uL
same,KIDNEY_L,"[…], time 7 day",1.1 g
same,KIDNEY_R,"[…], time 7 day",1.1 g
same,KIDNEY_TOTAL,"[…], time 7 day",2.1 g
same,KIDNEY_L,"[…], time 14 day",1.2 g
same,KIDNEY_R,"[…], time 14 day",1.2 g
same,KIDNEY_TOTAL,"[…], time 14 day",2.3 g
same,KIDNEY_L,"[…], time 28 day",1.3 g
same,KIDNEY_R,"[…], time 28 day",1.2 g
same,KIDNEY_TOTAL,"[…], time 28 day",2.5 g
same,LIVER,"[…], time 7 day",12.1 g
same,LIVER,"[…], time 14 day",13.5 g
same,LIVER,"[…], time 28 day",13.8 g
same,A/G,"[…], time 7 day",1.5
same,ALP,"[…], time 7 day",979.6 IU/L
same,ALT,"[…], time 7 day",37.6 IU/L
same,AST,"[…], time 7 day",62.6 IU/L
same,BUN,"[…], time 7 day",15.8 mg/dL
same,CRE,"[…], time 7 day",0.5 mg/dL
same,Ca,"[…], time 7 day",10.7 mg/dL
same,Cl,"[…], time 7 day",104.2 meq/L
same,DBIL,"[…], time 7 day",0.088 mg/dL
same,GLC,"[…], time 7 day",214.2 mg/dL
same,IP,"[…], time 7 day",7.4 mg/dL
same,K,"[…], time 7 day",4.1 meq/L
same,LDH,"[…], time 7 day",195.6 IU/L
same,Na,"[…], time 7 day",140.6 meq/L
same,PL,"[…], time 7 day",145 mg/dL
same,RALB,"[…], time 7 day",3.5 g/dL
same,TBIL,"[…], time 7 day",0.1 mg/dL
same,TC,"[…], time 7 day",74.2 mg/dL
same,TG,"[…], time 7 day",83.2 mg/dL
same,TP,"[…], time 7 day",5.8 g/dL
same,gamma-GTP,"[…], time 7 day",1.2 IU/L
same,A/G,"[…], time 14 day",1.5
same,ALP,"[…], time 14 day",728 IU/L
same,ALT,"[…], time 14 day",33.4 IU/L
same,AST,"[…], time 14 day",57.2 IU/L
same,BUN,"[…], time 14 day",12.8 mg/dL
same,CRE,"[…], time 14 day",0.5 mg/dL
same,Ca,"[…], time 14 day",10.7 mg/dL
same,Cl,"[…], time 14 day",104 meq/L
same,DBIL,"[…], time 14 day",0.09 mg/dL
same,GLC,"[…], time 14 day",200.4 mg/dL
same,IP,"[…], time 14 day",6.3 mg/dL
same,K,"[…], time 14 day",3.9 meq/L
same,LDH,"[…], time 14 day",137.8 IU/L
same,Na,"[…], time 14 day",141.2 meq/L
same,PL,"[…], time 14 day",149 mg/dL
same,RALB,"[…], time 14 day",3.4 g/dL
same,TBIL,"[…], time 14 day",0.1 mg/dL
same,TC,"[…], time 14 day",77.6 mg/dL
same,TG,"[…], time 14 day",96.4 mg/dL
same,TP,"[…], time 14 day",5.7 g/dL
same,gamma-GTP,"[…], time 14 day",0.6 IU/L
same,A/G,"[…], time 28 day",1.4
same,ALP,"[…], time 28 day",460.2 IU/L
same,ALT,"[…], time 28 day",34 IU/L
same,AST,"[…], time 28 day",54.4 IU/L
same,BUN,"[…], time 28 day",16.8 mg/dL
same,CRE,"[…], time 28 day",0.5 mg/dL
same,Ca,"[…], time 28 day",10.3 mg/dL
same,Cl,"[…], time 28 day",103.6 meq/L
same,DBIL,"[…], time 28 day",0.07 mg/dL
same,GLC,"[…], time 28 day",226.2 mg/dL
same,IP,"[…], time 28 day",6.1 mg/dL
same,K,"[…], time 28 day",3.4 meq/L
same,LDH,"[…], time 28 day",126.8 IU/L
same,Na,"[…], time 28 day",141.4 meq/L
same,PL,"[…], time 28 day",147 mg/dL
same,RALB,"[…], time 28 day",3.6 g/dL
same,TBIL,"[…], time 28 day",0.1 mg/dL
same,TC,"[…], time 28 day",83.4 mg/dL
same,TG,"[…], time 28 day",51.2 mg/dL
same,TP,"[…], time 28 day",6.2 g/dL
same,gamma-GTP,"[…], time 28 day",0.4 IU/L
